From US20220073525A1, “COMPOSITIONS FOR INHIBITING UBIQUITIN SPECIFIC PROTEASE 1” (FORMA Therapeutics, Inc., priority 2019, published 2022)

target: USP1 (Homo sapiens, UniProt O94782); assay: Biochemical Assay for USP1 Inhibition (Ub-Rho 110 fluorescence); settings: Table 5; 30 min preincubation, Enzyme 0.025 nM, Substrate Ub-Rho 110 25 nM; read-out: IC50 (μm)
Procedure: The assay was performed in a final volume of 6 μL in assay buffer containing 20 mM Tris-HCl pH 8.0, (1 M Tris-HCl, pH 8.0 solution; Corning 46-031-CM), 1 mM GSH (L-glutathione reduced, Sigma-Aldrich, G4251-100G), 0.03% BGG (0.22 μM filtered, Sigma, G7516-25G), and 0.01% Triton X-100 (Sigma, T9284-10L). Nanoliter quantities of 10-point, 3-fold serial dilution in DMSO were pre-dispensed into 1536 assay plates (Corning, #3724BC) for a final test concentration of 25 μM to 1.3 nM, top to lowest dose, respectively. Concentration and incubation times were optimized for the maximal signal-to-background while maintaining initial velocity conditions at a fixed substrate concentration (<<Km). 3 μL of 2× Enzyme was added to assay plates (pre-stamped with compound), preincubated for 30 min, and then treated with 3 μL of 2× Substrate (Ub-Rho 110, UbiQ-126). Final concentrations of Enzyme and Substrate are 0.025 nM and 25 nM, respectively. Plates were read using a kinetic protocol continuously for 11 min on the Envision (Perkin Elmer) or PheraSTAR (BMG), excitation at 485 nm and emission at 535 nm or excitation at 520 nm and emission at 590 nm. For all assay formats, data were reported as percent inhibition compared with control wells based on the following equation: % inh=100*([…]), where FLU=measured Fluorescence, AveLow=average Fluorescence of no enzyme control (n=32), and AveHigh=average Fluorescence of DMSO control (n=32). IC50 values were determined by curve fitting of the standard 4 parameter logistic fitting algorithm included in the Activity Base software package: TDBS XE Designer Model205. Data is fitted using the Levenburg Marquardt algorithm.
In Table 5, absolute stereochemistry has not been determined for some Compounds. Accordingly, assignment ofany Compounds as the “R” or “S” stereoisomer is arbitrary, unless otherwise noted. In some cases, Compounds are labeled with “1st eluting isomer”, “2nd eluting isomer”, etc. based on the purification method used to separate the stereoisomers.

Sequence of USP1 (O94782 whole entry): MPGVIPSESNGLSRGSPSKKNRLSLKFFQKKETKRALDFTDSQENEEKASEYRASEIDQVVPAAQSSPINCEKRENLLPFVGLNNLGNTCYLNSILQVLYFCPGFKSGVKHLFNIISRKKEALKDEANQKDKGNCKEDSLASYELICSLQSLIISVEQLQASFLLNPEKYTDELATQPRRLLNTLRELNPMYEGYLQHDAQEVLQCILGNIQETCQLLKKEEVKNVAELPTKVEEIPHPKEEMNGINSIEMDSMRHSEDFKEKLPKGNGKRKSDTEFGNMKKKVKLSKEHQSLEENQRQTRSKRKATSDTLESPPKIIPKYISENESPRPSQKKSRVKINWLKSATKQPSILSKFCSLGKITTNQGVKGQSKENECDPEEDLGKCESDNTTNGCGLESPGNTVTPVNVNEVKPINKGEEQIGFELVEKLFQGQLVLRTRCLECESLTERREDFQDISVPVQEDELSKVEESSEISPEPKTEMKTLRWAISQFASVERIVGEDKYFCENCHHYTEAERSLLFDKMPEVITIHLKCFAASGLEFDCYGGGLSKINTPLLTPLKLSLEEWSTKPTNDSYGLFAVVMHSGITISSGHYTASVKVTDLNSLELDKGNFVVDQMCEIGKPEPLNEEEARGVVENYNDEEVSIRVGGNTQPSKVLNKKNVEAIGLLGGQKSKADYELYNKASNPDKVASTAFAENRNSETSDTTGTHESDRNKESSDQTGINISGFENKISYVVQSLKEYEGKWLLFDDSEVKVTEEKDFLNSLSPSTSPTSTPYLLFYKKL
Sequence of USP1 (Q8TAF3 whole entry partner): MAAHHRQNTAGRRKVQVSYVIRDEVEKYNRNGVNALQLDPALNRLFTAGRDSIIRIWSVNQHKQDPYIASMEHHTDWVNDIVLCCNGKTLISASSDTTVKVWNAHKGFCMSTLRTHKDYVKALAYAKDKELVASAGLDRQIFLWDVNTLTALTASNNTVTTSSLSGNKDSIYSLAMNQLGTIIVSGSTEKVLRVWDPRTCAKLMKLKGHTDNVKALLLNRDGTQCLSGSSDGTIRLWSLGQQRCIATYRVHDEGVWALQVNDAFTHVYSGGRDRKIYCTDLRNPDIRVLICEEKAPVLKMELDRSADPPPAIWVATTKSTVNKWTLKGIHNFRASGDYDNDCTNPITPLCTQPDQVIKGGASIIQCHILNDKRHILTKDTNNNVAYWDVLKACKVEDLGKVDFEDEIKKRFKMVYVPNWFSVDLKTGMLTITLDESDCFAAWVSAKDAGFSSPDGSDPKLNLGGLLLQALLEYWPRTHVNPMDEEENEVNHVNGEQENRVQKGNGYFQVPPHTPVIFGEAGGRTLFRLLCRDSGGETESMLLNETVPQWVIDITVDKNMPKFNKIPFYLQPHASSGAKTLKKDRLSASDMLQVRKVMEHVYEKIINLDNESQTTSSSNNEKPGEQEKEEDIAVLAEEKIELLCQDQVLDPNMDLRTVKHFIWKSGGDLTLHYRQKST

| Compound | IC50 [nM] |
| --- | --- |
| Cc1nc(-c2cccnc2OC(C)C)c2n1CCN(c1ccc(-c3nc(C(F)(F)F)cn3C)cc1)C2 [Compound 20, 3-(3-methyl-7-{4-[1-methyl-4-(trifluoromethyl)-1H-imidazol-2-yl]phenyl}-5H,6H,7H,8H-imidazo[1,5-a]pyrazin-1-yl)-2-(propan-2-yloxy)pyridine] | ≤ 1000 |
| Cc1nc(-c2cccnc2C(C)C)c2n1CCN(c1ccc(-c3nc(C(F)(F)F)cn3C)nc1)C2 [Compound 75, 5-{3-methyl-1-[2-(propan-2-yl)pyridin-3-yl]-5H,6H,7H,8H-imidazo[1,5-a]pyrazin-7-yl}-2-[1-methyl-4-(trifluoromethyl)-1H-imidazol-2-yl]pyridine] | ≤ 1000 |
| Cc1nc(-c2cccnc2C(C)C)c2n1CCN(c1ccc(-c3nc(C(F)(F)F)cn3C)cc1)C2C (centres unmarked) [Compound 7, 3-(3,8-dimethyl-7-{4-[1-methyl-4-(trifluoromethyl)-1H-imidazol-2-yl]phenyl}-5H,6H,7H,8H-imidazo[1,5-a]pyrazin-1-yl)-2-(propan-2-yl)pyridine] | ≤ 1000 |
| Cc1nc(-c2ccc(N3CCn4c(C)nc(-c5cccnc5C(C)C)c4C3)cc2)cn1C [Compound 45, 3-{7-[4-(1,2-dimethyl-1H-imidazol-4-yl)phenyl]-3-methyl-5H,6H,7H,8H-imidazo[1,5-a]pyrazin-1-yl}-2-(propan-2-yl)pyridine] | ≤ 1000 |
| Cc1nc(-c2cccnc2C(C)C)c2n1CCN(c1ccc(-c3nc(C(F)(F)F)cn3C3CN(C)C3)cc1)C2 [Compound 73, 3-(3-methyl-7-{4-[1-(1-methylazetidin-3-yl)-4-(trifluoromethyl)-1H-imidazol-2-yl]phenyl}-5H,6H,7H,8H-imidazo[1,5-a]pyrazin-1-yl)-2-(propan-2-yl)pyridine] | ≤ 1000 |
| Cc1cn(C)c(-c2ccc(N3CCn4c(C)nc(-c5cccnc5C(C)C)c4C3)cc2)n1 [Compound 77, 3-{7-[4-(1,4-dimethyl-1H-imidazol-2-yl)phenyl]-3-methyl-5H,6H,7H,8H-imidazo[1,5-a]pyrazin-1-yl}-2-(propan-2-yl)pyridine] | ≤ 1000 |
| Cc1cc(Cl)n(-c2ccc(N3CCn4c(C)nc(-c5cccnc5OC(F)F)c4C3)cc2)n1 [Compound 82, 3-{7-[4-(5-chloro-3-methyl-1H-pyrazol-1-yl)phenyl]-3-methyl-5H,6H,7H,8H-imidazo[1,5-a]pyrazin-1-yl}-2-(difluoromethoxy)pyridine] | ≤ 1000 |
| Cc1nc(-c2cccnc2C(C)C)c2n1CCN(c1ccc(-c3nc(C(F)(F)F)cn3C)cc1)C2C (centres unmarked) [Compound 85, 3-[3,8-dimethyl-7-{4-[1-methyl-4-(trifluoromethyl)-1H-imidazol-2-yl]phenyl}-5H,6H,7H,8H-imidazo[1,5-a]pyrazin-1-yl]-2-(propan-2-yl)pyridine] | ≤ 1000 |
| COCCn1cc(C(F)(F)F)nc1-c1ccc(N2CCn3c(C)nc(-c4cccnc4C(C)C)c3C2)cc1 [Compound 63, 3-(7-{4-[1-(2-methoxyethyl)-4-(trifluoromethyl)-1H-imidazol-2-yl]phenyl}-3-methyl-5H,6H,7H,8H-imidazo[1,5-a]pyrazin-1-yl)-2-(propan-2-yl)pyridine] | ≤ 1000 |
| Cc1nc(-c2cccnc2OCC(F)(F)F)c2n1CCN(c1ccc(-c3nc(C(F)(F)F)cn3C)cc1)C2 [Compound 16, 3-(3-methyl-7-{4-[1-methyl-4-(trifluoromethyl)-1H-imidazol-2-yl]phenyl}-5H,6H,7H,8H-imidazo[1,5-a)pyrazin-1-yl)-2-(2,2,2-trifluoroethoxy)pyridine] | ≤ 1000 |
| Cc1nc(-c2cccnc2OC(F)F)c2n1CCN(c1ccc(-c3nc(C(F)(F)F)cn3C)cc1)C2C (single isomer, unassigned) [Compound 52-2, 2-(difluoromethoxy)-3-[-3,8-dimethyl-7-{4-[1-methyl-4-(trifluoromethyl)-1H-imidazol-2-yl]phenyl}-5H,6H,7H,8H-imidazo[1,5-a]pyrazin-1-yl]pyridine] | 1000 to 10000 |
| Cc1nc(-c2cccnc2C(C)C)c2n1CCN(c1ccc(-c3cncn3C)cc1)C2 [Compound 28, 3-{3-methyl-7-[4-(1-methyl-1H-imidazol-5-yl)phenyl]-5H,6H,7H,8H-imidazo[1,5-a]pyrazin-1-yl}-2-(propan-2-yl)pyridine] | > 25000 |
| Cc1nc(-c2cccnc2C(C)C)c2n1CCN(c1ccc(C3CNC(=O)C3)cc1)C2 (centres unmarked) [Compound 34, 4-(4-{3-methyl-1-[2-(propan-2-yl)pyridin-3-yl]-5H,6H,7H,8H-imidazo[1,5-a]pyrazin-7-yl}phenyl)pyrrolidin-2-one] | > 25000 |
| Cc1nc(-c2cccnc2C(C)C)c2n1CCN(c1ccc(C3CCCNC3=O)cc1)C2 (centres unmarked) [Compound 29, 3-(4-{3-methyl-1-[2-(propan-2-yl)pyridin-3-yl]-5H,6H,7H,8H-imidazo[1,5-a]pyrazin-7-yl}phenyl)piperidin-2-one] | > 25000 |
| Cc1nc(-c2cccnc2C(C)C)c2n1CCN(c1ccc(-n3nccn3)cc1)C2 [Compound 67, 3-{3-methyl-7-[4-(2H-1,2,3-triazol-2-yl)phenyl]-5H,6H,7H,8H-imidazo[1,5-a]pyrazin-1-yl}-2-(propan-2-yl)pyridine] | 1000 to 10000 |
| Cc1nc(-c2cccnc2C(C)C)c2n1CCN(c1cccc3[nH]ccc13)C2 [Compound 12, 4-{3-methyl-1-[2-(propan-2-yl)pyridin-3-yl]-5H,6H,7H,8H-imidazo[1,5-a]pyrazin-7-yl}-1H-indole] | > 25000 |
| Cc1nc(-c2cccnc2OC(F)F)c2n1CCN(c1ccc(-c3nc(C(F)(F)F)cn3C)cc1)C2C (single isomer, unassigned) [Compound 52-1, 2-(difluoromethoxy)-3-[-3,8-dimethyl-7-{4-[1-methyl-4-(trifluoromethyl)-1H-imidazol-2-yl]phenyl}-5H,6H,7H,8H-imidazo[1,5-a]pyrazin-1-yl]pyridine] | ≤ 1000 |
| Cc1nc(-c2cccnc2C(C)C)c2n1CCN(c1ccc(-c3ncccn3)cc1)C2 [Compound 41, 2-(4-{3-methyl-1-[2-(propan-2-yl)pyridin-3-yl]-5H,6H,7H,8H-imidazo[1,5-a]pyrazin-7-yl}phenyl)pyrimidine] | 1000 to 10000 |
| Cc1nc(-c2cccnc2C(C)C)c2n1CCN(c1ccc(C(=O)N(C)CC(F)(F)F)cc1)C2 [Compound 58, N-methyl-4-{3-methyl-1-[2-(propan-2-yl)pyridin-3-yl]-5H,6H,7H,8H-imidazo[1,5-a]pyrazin-7-yl}-N-(2,2,2-trifluoroethyl)benzamide] | 1000 to 10000 |
| Cc1nc(-c2cccnc2C(C)C)c2n1CCN(c1ccc(-c3ncn(C)n3)cc1)C2 [Compound 66, 3-{3-methyl-7-[4-(1-methyl-1H-1,2,4-triazol-3-yl)phenyl]-5H,6H,7H,8H-imidazo[1,5-a]pyrazin-1-yl}-2-(propan-2-yl)pyridine] | 10000 to 25000 |
| Cc1nc(-c2cccnc2C(C)C)c2n1CCN(c1ccc(C(=O)N3CCC[C@@H]3C)cc1)C2 [Compound 55, 3-(3-methyl-7-{4-[(2S)-2-methylpyrrolidine-1-carbonyl]phenyl}-5H,6H,7H,8H-imidazo[1,5-a]pyrazin-1-yl)-2-(propan-2-yl)pyridine] | 1000 to 10000 |
| Cc1nc(-c2cccnc2C(C)C)c2n1CCN(c1ccc(-c3nc(C(F)(F)F)cn3C)cc1)C2 [Compound 1, 1-(2-isopropylpyridin-3-yl)-3-methyl-7-(4-(1-methyl-4-(trifluoromethyl)-1H-imidazol-2-yl)phenyl)-5,6,7,8-tetrahydroimidazo[1,5-a]pyrazine] | ≤ 1000 |
| Cc1nc(-c2ccccc2C(C)C)c2n1CCN(c1ccc(-c3nc(C(F)(F)F)cn3C)cc1)C2 [Compound 3, 1-methyl-2-(4-{3-methyl-1-[2-(propan-2-yl)phenyl]-5H,6H,7H,8H-imidazo[1,5-a]pyrazin-7-yl}phenyl)-4-(trifluoromethyl)-1H-imidazole] | ≤ 1000 |
| Cc1nc(-c2cccnc2C(C)C)c2n1CCN(c1ccc(NC(=O)C3CC3)cc1)C2 [Compound 59, N-(4-{3-methyl-1-[2-(propan-2-yl)pyridin-3-yl]-5H,6H,7H,8H-imidazo[1,5-a]pyrazin-7-yl}phenyl)cyclopropanecarboxamide] | 1000 to 10000 |
| COc1ccc(N2CCn3c(C)nc(-c4cccnc4C(C)C)c3C2)cn1 [Compound 22, 2-methoxy-5-{3-methyl-1-[2-(propan-2-yl)pyridin-3-yl]-5H,6H,7H,8H-imidazo[1,5-a]pyrazin-7-yl}pyridine] | 10000 to 25000 |

same assay, conditions: Table 6, additional compounds; 30 min preincubation, Enzyme 0.025 nM, Substrate Ub-Rho 110 25 nM; read-out: IC50

| Compound | IC50 [nM] |
| --- | --- |
| Cc1nc(-c2cccnc2C(C)C)c2n1CCCN(Cc1ccc(-c3nc(C(F)(F)F)cn3C)cc1)C2 [Compound C-2, 1-(2-isopropylpyridin-3-yl)-3-methyl-8-(4-(1-methyl-4-(trifluoromethyl)-1H-imidazol-2-yl)benzyl)-6,7,8,9-tetrahydro-5H-imidazo[1,5-a][1,4]diazepine] | 1000 to 10000 |
